In patent US20160039914A1 (priority 2013, published 2016):

How the values were obtained:
[1] = test system: S. aureus (MRSA strain 38); conditions: in vivo, iv
MRSA strain 38 = test system: MRSA strain 38; design: species or system S. aureus; conditions: in vivo

## CN[C@H](CC(C)C)C(=O)N[C@H]1C(=O)N[C@@H](CC(N)=O)C(=O)N[C@H]2C(=O)N[C@H]3C(=O)N[C@H](C(=O)N[C@H](C(=O)O)c4cc(O)cc(O)c4-c4cc3ccc4O)[C@H](O)c3ccc(c(Cl)c3)Oc3cc2cc(c3O[C@@H]2O[C@H](CO)[C@@H](O)[C@H](O)[C@H]2O[C@H]2C[C@](C)(N)[C@H](O)[C@H](C)O2)Oc2ccc(cc2Cl)[C@H]1O [vancomycin]
[1]
  IFN-γ in serum: 2.98 ± 1.64
  IL-1β in serum: 3.51 ± 1.08
  IL-6 in serum: 379.72 ± 335.45
  IL-10 in serum: 16.75 ± 6.67
  IL-12p70 in serum: 61.55 ± 23.71
  KC/GRO in serum: 260.69 ± 122.01
  TNF-α in serum: 1.46 ± 0.68
MRSA strain 38
  mIL-1ra level in abscess fluid: not significantly reduced
  mIL-6 level in abscess fluid: not significantly reduced
  neutrophil and eosinophil counts: lower
